Test results from patent US20260078120A1, “SUBSTITUTED PYRIDOPYRIMIDINONES” (MIRATI THERAPEUTICS, INC., priority 2022, published 2026).

What was measured:
Format in all cases: cell-based
[1] = test system: T47D (PI3Kα H1047R mutant) cells; assay: CellTiter-Glo 2.0 luminescent cell viability assay, 72 hours, T47D cells; conditions: Homo sapiens, T47D, 72 h, T47D (PI3Kα H1047R mutant) cells, CellTiter-Glo, approximately 72 hours; read-out: T47D (H1047R mutant) Viability IC50
Procedure, shortened: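 Cells seeded at 1000 per well overnight were dosed with a 10-concentration, 1:4 series starting at 10 µM and incubated ~72 h at 37° C. Viability was read by CellTiter-Glo 2.0 luminescence after 30 min at room temperature. IC50 came from four-parameter fits of percent vehicle control.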

[2] = test system: T47D (PI3Kα H1047R mutant) cells; assay: Inhibition of pAKT formation, alphaLISA SureFire Ultra AKT 1/2/3 (pS473), T47D cells; conditions: Homo sapiens, T47D, T47D (PI3Kα H1047R mutant) cells; inhibition of pAKT (pS473) formation; approximately one hour or 24 hours treatment; read-out: T47D pAKT (H1047R mutant) IC50
Procedure, shortened: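 T47D cells (12,000/well) in HBSS were dosed with compound at 10 concentrations (10.4 μM top, 1:4 dilutions) for about 1 h or 24 h at 37 °C, then lysed. pS473 AKT was read by alphaLISA. Signals were normalized to alpelisib and DMSO controls, and IC50 came from a four-parameter fit.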

[3] = test system: MKN1 (PI3Kα E545K mutant) cells; assay: CellTiter-Glo 2.0 luminescent cell viability assay, 72 hours, MKN1 cells; conditions: Homo sapiens, MKN-1; MKN1 (PI3Kα E545K mutant) cells, CellTiter-Glo, approximately 72 hours; read-out: MKN1 (E545K) Viability IC50
Description: This Example illustrates that exemplary compounds of the present invention decrease the viability of cells.
The ability of a compound of Formula (I) to decrease the viability of cells was measured using CellTiter-Glo 2.0 (CTG) Luminescent Cell Viability Assay (#G9241) obtained from Promega (Madison, WI).
To prepare assay plates for viability assays, cells were trypsinized, resuspended in fresh media, and viable cells were counted utilizing trypan blue exclusion. T47D, SKBR3, or MKN1 cells were seeded at 1000 cells in 30 μl per well in a solid white flat bottom 384 cell culture plate (Perkin Elmer #6007680) and incubated at 37° C. overnight.
Assay day 1, cells were dosed using an Echo Liquid Handler (Beckman Coulter) with compounds at a 10 um starting concentration and serially diluted (1:4) for a total of 10 concentrations. Cells were incubated for approximately 72 hours with the compounds (solubilized in DMSO) at 37° C. After 72 hours of treatment, cell plates were equilibrated to room temperature before adding 15 μl of CTG to each well, plates were then covered in aluminum foil to protect from light, incubated at room temperature for 30 minutes on a microtiter plate shaker, and luminescence readings were collected using a CLARIOstar microplate reader (BMG Labtech, Germany). Percent of vehicle control values were plotted as log (inhibitor) vs. response-Variable slope (four parameters) for curve fitting and IC50 values were determined using XLfit.

[4] = test system: SKBR3 (PI3Kα wild type) cells; assay: CellTiter-Glo 2.0 luminescent cell viability assay, 72 hours, SKBR3 cells; conditions: Homo sapiens, SK-BR-3, 72 h, SKBR3 (PI3Kα wild type) cells, CellTiter-Glo, approximately 72 hours; read-out: SKBR3 (WT) Viability IC50
Procedure, shortened: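 Viability measured via CTG luminescence following roughly 72 hours of compound exposure at 37° C. Dosing used a 10 um starting concentration diluted 1:4 over 10 points; percent-of-vehicle data fitted with a variable-slope four-parameter model for IC50.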

[5] = test system: MKN1 (PI3Kα E545K mutant) cells; assay: Inhibition of pAKT formation, alphaLISA SureFire Ultra AKT 1/2/3 (pS473), MKN1 cells; conditions: Homo sapiens, MKN-1; MKN1 (PI3Kα E545K mutant) cells; inhibition of pAKT (pS473) formation; approximately one hour or 24 hours treatment; read-out: MKN1 (E545K) pAKT IC50
Description: The ability of a compound of Formula (I) to inhibit the formation of pAKT was measured using alphaLISA Surefire Ultra AKT 1/2/3 (pS473) Assay Kit (#ALSU-PAKT-B50K) was obtained from Perkin Elmer (Waltham, MA).
To prepare assay plates for pAKT alphaLISA assays, cells were trypsinized, resuspended in fresh media, and viable cells were counted utilizing trypan blue exclusion. Prior to seeding, cells were washed with PBS and resuspended in HBSS (Gibco, #14025092). T47D (12,000/w), SKBR3(12,000/w), or MKN1(24,000/w) cells were seeded at 12 μl per well in a solid white flat bottom 384 cell culture plate (Perkin Elmer #6007680).
Immediately after seeding, cells were dosed using an Echo Liquid Handler (Beckman Coulter) with compounds at a […] starting concentration and serially diluted (1:4) for a total of 10 concentrations. […] Cells were incubated with the compounds (solubilized in DMSO) for approximately one hour or 24 hours at 37° C. After one hour (or 24 hours) of treatment, cells were lysed with 3 μl of the 5× lysis buffer (provided and incubated at room temperature for 15 min on a microtiter plate shaker). Once cells were sufficiently lysed, 7.5 μl of the acceptor bead mix (made using the manufacturers recommended dilutions) was added to each well and left on the microtiter plate shaker for 1 min prior to incubating plates at room temperature for one hour, in the absence of light. After one hour of incubation with the acceptor bead mix, 7.5 μl of the donor bead mix (made using the manufacturers recommended dilutions) was added to each well and left on the microtiter plate shaker for 1 min prior to incubating plates at room temperature overnight in the absence of light. Plates were then imaged the following day using a CLARIOstar microplate reader (BMG Labtech, Germany).
Percent of control values were calculated by subtracting the average signal from the positive control (alpelisib) treated wells from all treated wells (including DMSO control wells) and then divided by the average signal from the vehicle DMSO treated control wells. Percent of vehicle control values were plotted as log (inhibitor) vs. response-Variable slope (four parameters) for curve fitting and IC50 values were determined using XLfit.
Key: N.D. =not determined

[6] = test system: SKBR3 (PI3Kα wild type) cells; assay: Inhibition of pAKT formation, alphaLISA SureFire Ultra AKT 1/2/3 (pS473), SKBR3 cells; conditions: Homo sapiens, SK-BR-3; Inhibition of pAKT in SKBR3 (PI3Kα wild type) cells; read-out: SKBR3 (WT) pAKT IC50 (nM) (H1047R mutant) IC50
Procedure, shortened: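 Cells seeded in HBSS (SKBR3 12,000/well, MKN1 24,000/well) and dosed immediately, 10-point 1:4 series from […], for about 1 h or 24 h at 37 °C. pAKT S473 by alphaLISA after lysis; signal normalised to alpelisib and DMSO controls, IC50 by four-parameter fit.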

Cc1cc(C(C)Nc2cccc3cn[nH]c23)c2nc(N3CCCCC3)cc(=O)n2c1 (stereo not drawn) [Example 3-17, 9-(1-((1H-indazol-7-yl)amino)ethyl)-7-methyl-2-(piperidin-1-yl)-4H-pyrido[1,2-a]pyrimidin-4-one]
IC50 [1]: > 10 µM | IC50 [2]: > 10 µM | IC50 [3]: > 10 µM | IC50 [4]: 9.77 µM | IC50 [5]: > 10 µM | IC50 [6]: > 10000 nM

Cc1cc(C(C)Nc2ccccc2C(O)C(F)(F)F)c2nc(N3CCCCC3)cc(=O)n2c1 (stereo not drawn) [Example 3-18, 7-methyl-2-(piperidin-1-yl)-9-(1-((2-(2,2,2-trifluoro-1-hydroxyethyl)phenyl)amino)ethyl)-4H-pyrido[1,2-a]pyrimidin-4-one]
IC50 [1]: 4.2 µM | IC50 [2]: 1.39 µM | IC50 [3]: > 10 µM | IC50 [4]: > 10 µM | IC50 [5]: > 10 µM | IC50 [6]: > 10000 nM

Cc1cc(C(C)Nc2ccc(Cl)nc2C(=O)O)c2nc(N3CCCCC3)cc(=O)n2c1 (stereo not drawn) [Example 3-19, 6-chloro-3-((1-(7-methyl-4-oxo-2-(piperidin-1-yl)-4H-pyrido[1,2-a]pyrimidin-9-yl)ethyl)amino)picolinic acid]
IC50 [1]: 0.367 µM | IC50 [2]: 0.0383 µM | IC50 [3]: > 10 µM | IC50 [4]: > 10 µM | IC50 [5]: 1.19 µM | IC50 [6]: 2800 nM

Cc1cc(C(C)Nc2ccccc2C(F)(F)CO)c2nc(N3CCCCC3)cc(=O)n2c1 (stereo not drawn) [Example 3-20, 9-(1-((2-(1,1-difluoro-2-hydroxyethyl)phenyl)amino)ethyl)-7-methyl-2-(piperidin-1-yl)-4H-pyrido[1,2-a]pyrimidin-4-one]
IC50 [1]: > 10 µM | IC50 [2]: 1.12 µM | IC50 [3]: > 10 µM | IC50 [4]: > 10 µM | IC50 [5]: > 10 µM | IC50 [6]: > 10000 nM

C=CC(=O)NC(C)c1cc(C)cn2c(=O)cc(N3CCCCC3)nc12 (stereo not drawn) [Example 4-1, N-(1-(7-methyl-4-oxo-2-(piperidin-1-yl)-4H-pyrido[1,2-a]pyrimidin-9-yl)ethyl)acrylamide]
IC50 [1]: > 10 µM | IC50 [2]: > 10 µM | IC50 [3]: > 10 µM | IC50 [4]: > 10 µM | IC50 [5]: > 10 µM | IC50 [6]: > 10000 nM

C=CC(=O)N(C)C(C)c1cc(C)cn2c(=O)cc(N3CCCCC3)nc12 (stereo not drawn) [Example 4-2, N-methyl-N-(1-(7-methyl-4-oxo-2-(piperidin-1-yl)-4H-pyrido[1,2-a]pyrimidin-9-yl)ethyl)acrylamide]
IC50 [1]: > 10 µM | IC50 [2]: > 10 µM | IC50 [3]: > 10 µM | IC50 [4]: > 10 µM | IC50 [5]: > 10 µM | IC50 [6]: > 10000 nM

Cc1cc(C(C)NC(=O)CCl)c2nc(N3CCCCC3)cc(=O)n2c1 (stereo not drawn) [Example 4-3, 2-chloro-N-(1-(7-methyl-4-oxo-2-(piperidin-1-yl)-4H-pyrido[1,2-a]pyrimidin-9-yl)ethyl)acetamide]
IC50 [1]: > 10 µM | IC50 [2]: > 10 µM | IC50 [3]: 6.14 µM | IC50 [4]: 4.84 µM | IC50 [5]: > 10 µM | IC50 [6]: > 10000 nM

Cc1cc(C(C)N(C)C(=O)CCl)c2nc(N3CCCCC3)cc(=O)n2c1 (stereo not drawn) [Example 4-4, 2-chloro-N-methyl-N-(1-(7-methyl-4-oxo-2-(piperidin-1-yl)-4H-pyrido[1,2-a]pyrimidin-9-yl)ethyl)acetamide]
IC50 [1]: > 10 µM | IC50 [2]: > 10 µM | IC50 [3]: 4.29 µM | IC50 [4]: 3.86 µM | IC50 [5]: > 10 µM | IC50 [6]: > 10000 nM

CC(Nc1ccccc1C(=O)O)c1cc(C2CC2)cn2c(=O)cc(N3CCCCC3)nc12 (stereo not drawn) [Example 5-3, 2-((1-(7-cyclopropyl-4-oxo-2-(piperidin-1-yl)-4H-pyrido[1,2-a]pyrimidin-9-yl)ethyl)amino)benzoic acid]
IC50 [1]: > 10 µM | IC50 [2]: 0.0321 µM | IC50 [3]: > 10 µM | IC50 [4]: > 10 µM | IC50 [5]: > 10 µM | IC50 [6]: 3540 nM

CCc1c(N2CCCCC2)nc2c(C(C)Nc3ccccc3C(=O)O)cc(C)cn2c1=O (stereo not drawn) [Example 5-6, 2-((1-(3-ethyl-7-methyl-4-oxo-2-(piperidin-1-yl)-4H-pyrido[1,2-a]pyrimidin-9-yl)ethyl)amino)benzoic acid]
IC50 [1]: 3.8 µM | IC50 [2]: 0.0281 µM | IC50 [3]: > 10 µM | IC50 [4]: > 10 µM | IC50 [5]: 6.52 µM | IC50 [6]: 9050 nM

CC(Nc1ccccc1C(=O)O)c1cc(C(F)F)cn2c(=O)cc(N3CCCCC3)nc12 (stereo not drawn) [Example 5-7, 2-((1-(7-(difluoromethyl)-4-oxo-2-(piperidin-1-yl)-4H-pyrido[1,2-a]pyrimidin-9-yl)ethyl)amino)benzoic acid]
IC50 [1]: 2.63 µM | IC50 [2]: 0.0341 µM | IC50 [3]: 3.28 µM | IC50 [4]: 2.95 µM | IC50 [5]: > 10 µM | IC50 [6]: > 10000 nM

CCc1cc(C(C)Nc2ccccc2C(=O)O)c2nc(N3CCCCC3)cc(=O)n2c1 (stereo not drawn) [Example 5-8, 2-((1-(7-ethyl-4-oxo-2-(piperidin-1-yl)-4H-pyrido[1,2-a]pyrimidin-9-yl)ethyl)amino)benzoic acid]
IC50 [1]: 3.79 µM | IC50 [2]: 0.017 µM | IC50 [3]: > 10 µM | IC50 [4]: > 10 µM | IC50 [5]: > 10 µM | IC50 [6]: > 10000 nM

Cc1cc(C(C)Nc2ccccc2C(=O)O)c2nc(N3Cc4ccccc4C3)c(C)c(=O)n2c1 (stereo not drawn) [Example 5-9, 2-((1-(2-(isoindolin-2-yl)-3,7-dimethyl-4-oxo-4H-pyrido[1,2-a]pyrimidin-9-yl)ethyl)amino)benzoic acid]
IC50 [1]: 0.43 µM | IC50 [2]: 0.021 µM | IC50 [3]: > 10 µM | IC50 [4]: > 10 µM | IC50 [5]: 3.5 µM | IC50 [6]: 683 nM

Cc1c(N2CCC(C)(C)CC2)nc2c(C(C)Nc3ccccc3C(=O)O)cccn2c1=O (stereo not drawn) [Example 5-10, 2-((1-(2-(4,4-dimethylpiperidin-1-yl)-3-methyl-4-oxo-4H-pyrido[1,2-a]pyrimidin-9-yl)ethyl)amino)benzoic acid]
IC50 [1]: 1.8 µM | IC50 [2]: 0.0404 µM | IC50 [3]: > 10 µM | IC50 [4]: > 10 µM | IC50 [5]: > 10 µM | IC50 [6]: 6120 nM
